Measurements: US9540299B2, “MTOR-independent activator of TFEB for autophagy enhancement and uses thereof” (Hong Kong Baptist University, priority 2015, dated 2017)

Tests used:
[1] = test system: N2a cells; assay: LC3 puncta and tfLC3 autophagy flux imaging in N2a cells; type: cell-based, mouse; details: N2a cells transfected with tfLC3, 12 hours
Protocol: N2a cells are treated with E4 (1 μM) in the presence or absence of CQ for 12 hours. The cells are fixed and stained with LC3 antibody (red) and DAPI (blue). Representative cells are then selected and photographed under a DeltaVision Deconvolution Microscope (GE Healthcare).
N2a cells are transiently transfected with mRFP-GFP-LC3 (tfLC3) plasmid and then treated with E4 (1 μM) or CQ (1 μM) for 12 hours. Representative cells are then selected and photographed under a DeltaVision Deconvolution Microscope (GE Healthcare).
After transiently knockdown the expression of TFEB, N2a cells are treated with E4 (1 μM) for 12 hours, the cells were then stained with LC3 antibody (red) and DAPI (blue).
Cells are seeded on coverslips placed in 24-well plates. For autophagy flux assay, cells are transfected with tfLC3 plasmid for 24 hours and then treated with the indicated compounds. For other assays, at the end drug treatment, slices are fixed with 3.7% paraformaldehyde, permeabilized in 0.2% Triton X-100 and blocked with 5% BSA. After blocking, the slices are stained with anti-TFEB (1:200) or anti-LC3 (1:500) antibodies overnight at 4° C. […] Cells are visualized using the Eclipse 80i fluorescence microscope (Nikon Instruments Inc.) or the DeltaVision Deconvolution Microscope (GE Healthcare).

[2] = target: T1, 3×Flag-TFEB (Homo sapiens, UniProt P19484); assay: Nuclear translocation of Flag-TFEB in Hela cells stably expressing 3×Flag-TFEB (immunostaining, western blot); type: cell-based; details: analogs 1 μM, curcumin 10 μM, 12 h, Torin 1 1 μM, 2 h
T1 construct: expressed in transfected cells
T1 sequence (P19484 1-476): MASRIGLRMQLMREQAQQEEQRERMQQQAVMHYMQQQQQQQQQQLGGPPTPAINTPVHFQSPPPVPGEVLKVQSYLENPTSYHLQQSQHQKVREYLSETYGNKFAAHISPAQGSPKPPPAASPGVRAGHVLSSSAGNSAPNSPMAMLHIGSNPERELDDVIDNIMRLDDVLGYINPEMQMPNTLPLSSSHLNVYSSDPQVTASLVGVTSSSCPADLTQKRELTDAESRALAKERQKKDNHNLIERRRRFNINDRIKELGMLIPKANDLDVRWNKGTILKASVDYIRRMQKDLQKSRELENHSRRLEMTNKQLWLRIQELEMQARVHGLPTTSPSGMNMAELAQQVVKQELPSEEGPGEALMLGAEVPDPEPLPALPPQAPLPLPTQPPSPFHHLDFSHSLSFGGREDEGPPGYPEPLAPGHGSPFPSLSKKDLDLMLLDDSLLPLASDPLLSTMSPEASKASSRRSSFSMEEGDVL
Protocol: Cells were treated with curcumin (Cur, 10 μM), A2, B3 and C1 (1 μM) for 12 h. […] Data is quantified by ImageJ software and is presented as mean±SD of three replicates for each treatment conditions. At least 1000 cells are analyzed in each treatment group. *p<0.05 vs. the control (0.1% DMSO). FIG. 4C is a western blot showing the expression of endogenous TFEB. […] Data are presented as the mean±SD from three independent experiments. *p<0.05 vs. the control (0.1% DMSO). FIG. 4E is fluorescence images showing expression of 3×Flag-TFEB in Hela cells having treated with Cur (10 μM), A2, B3 and C1 (1 μM) for 12 h. Torin 1 (1 μM) treatment for 2 h is used as a positive control. Cells were fixed and stained with anti-Flag antibody. […] FIG. 4G is the western blot showing the expression of Flag-tagged TFEB in the cytosolic (Cyt.) and nuclear (Nuc.) fractions. ACTB and H3F3A (H3 histone, family 3A) are used as loading control of cytoplasmic and nuclear fraction, respectively. FIG. 4H is showing the relative intensity of TFEB in the cytosolic and nuclear fractions. Data are presented as the mean±SD from three independent experiments. *p<0.05 vs. the control (0.1% DMSO).
HeLa cells stably expressing 3×Flag-TFEB are treated with curcumin analogs E2, E3 and E4 (1 μM) for 12 hours. Torin 1 (1 μM) treatment for 2 hours is used as a positive control. Cells are fixed and stained with anti-Flag antibody (red) and DAPI (blue) (FIG. 18A). TFEB translocate into nucleus are quantified (FIG. 18B). Quantification data are presented as mean±SD of three replicates in a representative experiment. At least 500 cells are analyzed in each treatment group.
HeLa cells stably expressing 3×Flag-TFEB are treated with curcumin analogs E2, E3 and E4 (1 μM) for 12 hours. Torin 1 (1 μM) treatment for 2 hours is used as a positive control. The expression of TFEB in the cytosolic (Cyt.) and nuclear (Nuc.) fractions are determined by western blotting (FIG. 19A) and quantified (FIG. 19B). TUBB (β-tubulin) and H3F3A (H3 histone, family 3A) are used as loading control of cytoplasmic and nuclear fraction respectively. Quantification data are presented as the mean±SD from three independent experiments. *p<0.05 vs. the control (0.1% DMSO).
N2a, Hela and Hela cells stably expressing 3×-Flag-TFEB are cultured in DMEM supplemented with 10% FBS. SH-SY5Y cells are cultured in DMEM/F12 supplemented with 10% FBS. For drug treatment, the full medium is replaced by fresh Opti-MEM I and then the compounds (in 0.1% DMSO) are added to the cells and incubated for 12 h. Inducible PC12 cells overexpressing SNCA (WT and A53T) (a kind gift from Prof. David C. Rubinsztein at Cambridge University) are grown in DMEM supplemented with 10% horse serum, 5% FBS, 50 μg/ml G418, and 150 μg/ml hygromycin B at 37° C., 10% CO2. Cells are treated with 2 μg/ml doxycycline (Dox) for 24 h to induce SNCA expression. The full medium is changed to Opti-MEM I containing the testing compounds for another 48 h.
Cells are lysed on ice in 1× Lysis Buffer (9803, Life Technologies) with complete protease inhibitor mixture (04693124001, Roche Applied Science). Animal tissues are homogenized in nine volumes of ice-cold PBS supplemented with protease inhibitors. Cytosolic and nuclear fractions are isolated using protocols similar to those described previously. Anti-Flag or TFEB antibody is added to the whole cell lysates and Dynabeads® Protein G (10003D, Life Technologies) is used for immunoprecipitation. Proteins are separated by 10-15% SDS-PAGE, transferred, and blotted with the antibodies described. The blots are then incubated with secondary antibodies or the Clean-Blot IP Detection Reagent (21230, Thermo Scientific) at room temperature for 1 h. The protein signals are detected by ECL kit (32106, Pierce) and quantified using ImageJ software.
Cells are seeded on coverslips placed in 24-well plates. […]

| nuclear translocation of Flag-TFEB [2] | SMILES | mRFP-GFP-LC3 (tfLC3) puncta (autophagy flux, autolysosome formation) [1] |
| --- | --- | --- |
| – | CCN(CC)CCCC(C)Nc1ccnc2cc(Cl)ccc12 (centres unmarked) [CQ, chloroquine, reference compound] | induced accumulation and colocalization of both GFP and mRFP fluorescence |
| significantly promotes | CCC(=O)N1CCN(c2ccc(-n3c(=O)ccc4cnc5ccc(-c6cnc7ccccc7c6)cc5c43)cc2C(F)(F)F)CC1 [Torin 1, reference compound] | – |
